Experimental data as given in patent US20110015226A1, “Treatment of Energy Utilization Disease” (SUMMIT CORPORATION PLC, priority 2008, published 2011).

Key:
Format in all cases: biochemical
[1] = biological target: T1, α-D-galactosidase Green coffee bean (Coffea arabica, UniProt Q42656); assay: Glycosidase inhibition: α-D-galactosidase Green coffee bean; conditions: compounds tested at 0.8 mM
T1 construct: α-D-galactosidase (Green coffee beans); purchased Sigma; host or cells: green coffee beans
T1 sequence (Q42656 16-378): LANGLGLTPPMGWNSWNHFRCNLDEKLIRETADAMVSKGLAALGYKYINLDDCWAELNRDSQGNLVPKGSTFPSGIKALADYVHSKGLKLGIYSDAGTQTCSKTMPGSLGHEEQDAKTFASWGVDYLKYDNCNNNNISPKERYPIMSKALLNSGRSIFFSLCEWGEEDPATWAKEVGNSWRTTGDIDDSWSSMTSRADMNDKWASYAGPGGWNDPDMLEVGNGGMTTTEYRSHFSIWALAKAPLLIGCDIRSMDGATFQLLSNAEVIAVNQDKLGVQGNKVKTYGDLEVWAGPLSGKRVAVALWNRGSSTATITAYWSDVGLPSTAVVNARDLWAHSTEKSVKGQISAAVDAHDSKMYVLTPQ
Description: (§1) The results tabulated below were obtained using commercially available glycosidases and p-nitrophenyl-substrates using standard methods described for example by Watson et al (1997) Phytochemistry 46 255-259. All enzymes and substrates were bought from Sigma. Enzyme and substrate solutions were made using sodium phosphate buffers at the pH optima values. The enzymes used were α-D-glucosidase Saccharomyces cerevisiae, Bacillus stearothermophilus, Oryzae sativa), β-D-glucosidase (Almond), α-D-mannosidase (Jack bean), α-D-galactosidase (Green coffee beans), β-D-galactosidase (Bovine liver), α-L-fucosidase (Bovine kidney), N-acetyl-β-D-glucosaminidase (Bovine kidney, Jack bean, Aspergillus oryzae), Naringinase (Penicillium decumbens) and amyloglucosidase (Aspergillus niger). All enzymes were used with the appropriate p-nitrophenyl substrates (5 mM). Amyloglucosidase activity was measured using amylopectin (0.1%) (Merck) mixed with sodium phosphate buffer, pH 4.5 in a glass bottle, and healed in a boiling water bath for 20 minutes to dissolve with released glucose measured using ‘Trinder’ glucose detection solution (Sigma).
(§2) All enzymes and para-nitrophenyl substrates were purchased from Sigma, with the exception of beta-mannosidase which came from Megazyme. Enzymes were assayed at 27° C. in 0.1M citric acid/0.2M disodium hydrogen phosphate buffers at the optimum pH for the enzyme. The incubation mixture consisted of 10 μl enzyme solution, 10 μl of 1 mg/ml aqueous solution of extract and 50 μl of the appropriate 5 mM para-nitrophenyl substrate made up in buffer at the optimum pH for the enzyme. The reactions were stopped by addition of 70 μl 0.4M glycine (pH 10.4) during the exponential phase of the reaction, which had been determined at the beginning using uninhibited assays in which water replaced inhibitor. Final absorbances were read at 405 nm using a Versamax microplate reader (Molecular Devices). Assays were carried out in triplicate, and the values given are means of the three replicates per assay. (See Watson, A. A., Nash, R. J., Wormald, M. R., Harvey, D. J., Dealler, S., Lees, E., Asano, N., Kizu, H., Kato, A., Griffiths, R. C., Cairns, A. J. and Fleet, G. W. J. (1997). Glycosidase-inhibiting pyrrolidine alkaloids from Hyacinthoides non-scripta. Phytochemistry 46 (2): 255-259.)

[2] = biological target: T2, N-acetyl-β-D-glucosaminidase (A. oryzae) (Aspergillus oryzae, UniProt Q8J2T0); assay: Glycosidase inhibition: N-acetyl-β-D-glucosaminidase (A. oryzae); conditions: compounds tested at 0.8 mM
T2 construct: purchased Sigma
T2 sequence (Q8J2T0 97-600): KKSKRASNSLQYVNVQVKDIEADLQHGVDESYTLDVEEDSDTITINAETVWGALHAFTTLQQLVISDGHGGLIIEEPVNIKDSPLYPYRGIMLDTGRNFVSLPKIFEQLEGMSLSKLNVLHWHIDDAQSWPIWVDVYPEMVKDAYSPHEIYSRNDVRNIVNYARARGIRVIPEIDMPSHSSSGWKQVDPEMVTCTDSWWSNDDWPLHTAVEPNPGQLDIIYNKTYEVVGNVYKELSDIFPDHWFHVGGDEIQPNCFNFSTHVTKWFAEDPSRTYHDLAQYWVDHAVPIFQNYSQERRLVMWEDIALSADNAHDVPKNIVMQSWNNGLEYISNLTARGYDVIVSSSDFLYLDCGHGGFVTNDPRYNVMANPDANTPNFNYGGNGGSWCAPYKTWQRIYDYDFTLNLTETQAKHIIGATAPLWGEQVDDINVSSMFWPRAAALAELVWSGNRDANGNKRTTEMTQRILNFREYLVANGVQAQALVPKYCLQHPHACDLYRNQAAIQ
Description: as §1, §2

[3] = biological target: T3, α-D-mannosidase Jack bean (Canavalia ensiformis, UniProt C0HJB3); assay: Glycosidase inhibition: α-D-mannosidase Jack bean; conditions: compounds tested at 0.8 mM
T3 construct: α-D-mannosidase (Jack bean); purchased Sigma
T3 sequence (C0HJB3 1-981): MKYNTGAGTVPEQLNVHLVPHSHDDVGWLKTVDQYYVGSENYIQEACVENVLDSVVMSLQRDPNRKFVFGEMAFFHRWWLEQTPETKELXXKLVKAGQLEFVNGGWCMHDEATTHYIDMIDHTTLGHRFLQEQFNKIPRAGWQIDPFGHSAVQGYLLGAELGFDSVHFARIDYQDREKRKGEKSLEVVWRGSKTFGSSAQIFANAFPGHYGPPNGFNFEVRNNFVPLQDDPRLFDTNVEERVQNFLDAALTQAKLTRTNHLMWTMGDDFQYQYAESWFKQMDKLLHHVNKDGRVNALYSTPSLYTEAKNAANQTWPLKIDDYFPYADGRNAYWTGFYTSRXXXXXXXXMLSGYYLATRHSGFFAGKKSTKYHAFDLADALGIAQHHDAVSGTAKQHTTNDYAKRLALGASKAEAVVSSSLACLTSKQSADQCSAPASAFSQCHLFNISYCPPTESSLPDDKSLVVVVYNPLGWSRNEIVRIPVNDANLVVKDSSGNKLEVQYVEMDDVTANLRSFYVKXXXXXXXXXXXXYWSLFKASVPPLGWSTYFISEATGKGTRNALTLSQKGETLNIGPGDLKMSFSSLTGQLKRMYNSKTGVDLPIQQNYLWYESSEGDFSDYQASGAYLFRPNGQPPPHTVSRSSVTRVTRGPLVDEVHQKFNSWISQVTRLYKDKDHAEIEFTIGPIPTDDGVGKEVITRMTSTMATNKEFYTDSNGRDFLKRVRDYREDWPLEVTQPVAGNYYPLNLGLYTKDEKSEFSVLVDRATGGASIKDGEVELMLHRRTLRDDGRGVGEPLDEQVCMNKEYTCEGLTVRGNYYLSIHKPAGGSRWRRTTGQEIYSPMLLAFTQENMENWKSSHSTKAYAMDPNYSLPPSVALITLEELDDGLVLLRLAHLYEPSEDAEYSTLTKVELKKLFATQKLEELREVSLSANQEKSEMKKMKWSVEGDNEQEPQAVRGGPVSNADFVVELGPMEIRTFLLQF

α-D-glucosidase (Yeast) = biological target: T4, α-D-glucosidase (Yeast) (Saccharomyces cerevisiae, UniProt P53341); assay: Glycosidase inhibition: α-D-glucosidase (Yeast); conditions: compounds tested at 0.8 mM
T4 construct: purchased Sigma
T4 sequence (P53341 whole entry): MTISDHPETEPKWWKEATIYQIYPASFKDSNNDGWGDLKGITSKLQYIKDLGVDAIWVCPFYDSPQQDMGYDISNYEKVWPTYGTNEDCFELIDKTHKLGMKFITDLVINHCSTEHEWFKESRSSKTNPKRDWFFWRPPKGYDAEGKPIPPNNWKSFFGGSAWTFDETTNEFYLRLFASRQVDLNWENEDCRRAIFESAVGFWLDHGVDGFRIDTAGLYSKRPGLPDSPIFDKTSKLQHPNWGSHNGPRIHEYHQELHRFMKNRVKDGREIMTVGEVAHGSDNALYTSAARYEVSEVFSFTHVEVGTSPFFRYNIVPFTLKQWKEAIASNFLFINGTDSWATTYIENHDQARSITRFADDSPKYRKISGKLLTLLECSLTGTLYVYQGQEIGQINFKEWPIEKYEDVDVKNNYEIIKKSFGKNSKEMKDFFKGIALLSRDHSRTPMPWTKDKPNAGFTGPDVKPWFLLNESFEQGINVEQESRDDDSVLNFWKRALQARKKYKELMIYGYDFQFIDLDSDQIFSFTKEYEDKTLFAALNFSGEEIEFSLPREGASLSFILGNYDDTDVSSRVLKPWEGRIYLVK
Description: as §1, §2

[4] = test system: N-acetyl-β-D-glucosaminidase (Bovine kidney); assay: Glycosidase inhibition: N-acetyl-β-D-glucosaminidase (Bovine kidney); conditions: for % inhibition, N-acetyl-β-D-glucosaminidase (Bovine kidney): compounds tested at 0.8 mM; for IC50: read-out: IC50, N-acetyl-β-D-glucosaminidase (Bovine kidney);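 for all read-outs here: enzyme activity followed by cleavage of the matching p-nitrophenyl glycoside (5 mM) in phosphate buffer set to the enzyme's optimal pH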
[5] = biological target: T5, α-L-fucosidase Bovine kidney (Bos taurus, UniProt Q2KIM0); assay: Glycosidase inhibition: α-L-fucosidase Bovine kidney; conditions: compounds tested at 0.8 mM
T5 construct: α-L-fucosidase (Bovine kidney); purchased Sigma; host or cells: bovine kidney
T5 sequence (Q2KIM0 23-468): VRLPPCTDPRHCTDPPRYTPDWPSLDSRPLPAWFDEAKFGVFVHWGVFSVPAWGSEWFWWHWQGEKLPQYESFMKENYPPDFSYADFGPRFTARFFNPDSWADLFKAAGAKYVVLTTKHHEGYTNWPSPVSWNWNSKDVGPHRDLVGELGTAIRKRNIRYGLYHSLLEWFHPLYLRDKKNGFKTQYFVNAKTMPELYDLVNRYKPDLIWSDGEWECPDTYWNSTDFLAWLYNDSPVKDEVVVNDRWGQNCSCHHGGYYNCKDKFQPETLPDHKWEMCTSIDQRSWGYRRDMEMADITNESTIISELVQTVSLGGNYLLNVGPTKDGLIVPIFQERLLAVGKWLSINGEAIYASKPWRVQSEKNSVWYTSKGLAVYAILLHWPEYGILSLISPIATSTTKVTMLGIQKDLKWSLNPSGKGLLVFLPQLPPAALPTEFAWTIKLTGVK

[6] = biological target: α-D-glucosidase (Bacillus) (Geobacillus stearothermophilus, UniProt A0ACH1E9U3); assay: Glycosidase inhibition: α-D-glucosidase (Bacillus); conditions: compounds tested at 0.8 mM
Sequence of α-D-glucosidase (Bacillus) (A0ACH1E9U3 entry or part of it): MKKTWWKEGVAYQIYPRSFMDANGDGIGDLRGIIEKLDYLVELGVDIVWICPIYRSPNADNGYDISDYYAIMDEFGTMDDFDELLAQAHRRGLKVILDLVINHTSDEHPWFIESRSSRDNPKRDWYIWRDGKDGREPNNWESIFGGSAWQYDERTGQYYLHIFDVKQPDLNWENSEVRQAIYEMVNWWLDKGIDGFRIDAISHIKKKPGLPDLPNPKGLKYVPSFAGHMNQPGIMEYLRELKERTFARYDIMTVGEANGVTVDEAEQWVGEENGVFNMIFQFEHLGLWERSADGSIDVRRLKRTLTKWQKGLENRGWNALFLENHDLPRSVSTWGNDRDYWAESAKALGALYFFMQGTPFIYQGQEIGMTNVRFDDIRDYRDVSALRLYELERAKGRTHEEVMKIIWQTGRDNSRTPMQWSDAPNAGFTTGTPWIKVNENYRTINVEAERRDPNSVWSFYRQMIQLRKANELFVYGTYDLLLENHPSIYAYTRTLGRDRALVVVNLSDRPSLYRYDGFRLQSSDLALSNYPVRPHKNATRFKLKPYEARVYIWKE
Description: as §1, §2

[7] = biological target: T6, β-Glucuronidase Bovine liver (Bos taurus, UniProt A3KMY8); assay: Glycosidase inhibition: β-Glucuronidase Bovine liver; conditions: for IC50: pH 5.0, 27° C., p-nitrophenyl β-D-glucuronide, read-out: IC50, β-Glucuronidase Bovine liver;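 for all read-outs here: bovine liver β-glucuronidase acting on p-nitrophenyl β-D-glucuronide substrate in citric acid/disodium hydrogen phosphate buffer, pH 5.0, 27 °C, mean of triplicate runs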
T6 construct: The assay involved the use of Bovine liver β-glucuronidase; purchased Sigma; host or cells: bovine liver
T6 sequence (A3KMY8 1-652): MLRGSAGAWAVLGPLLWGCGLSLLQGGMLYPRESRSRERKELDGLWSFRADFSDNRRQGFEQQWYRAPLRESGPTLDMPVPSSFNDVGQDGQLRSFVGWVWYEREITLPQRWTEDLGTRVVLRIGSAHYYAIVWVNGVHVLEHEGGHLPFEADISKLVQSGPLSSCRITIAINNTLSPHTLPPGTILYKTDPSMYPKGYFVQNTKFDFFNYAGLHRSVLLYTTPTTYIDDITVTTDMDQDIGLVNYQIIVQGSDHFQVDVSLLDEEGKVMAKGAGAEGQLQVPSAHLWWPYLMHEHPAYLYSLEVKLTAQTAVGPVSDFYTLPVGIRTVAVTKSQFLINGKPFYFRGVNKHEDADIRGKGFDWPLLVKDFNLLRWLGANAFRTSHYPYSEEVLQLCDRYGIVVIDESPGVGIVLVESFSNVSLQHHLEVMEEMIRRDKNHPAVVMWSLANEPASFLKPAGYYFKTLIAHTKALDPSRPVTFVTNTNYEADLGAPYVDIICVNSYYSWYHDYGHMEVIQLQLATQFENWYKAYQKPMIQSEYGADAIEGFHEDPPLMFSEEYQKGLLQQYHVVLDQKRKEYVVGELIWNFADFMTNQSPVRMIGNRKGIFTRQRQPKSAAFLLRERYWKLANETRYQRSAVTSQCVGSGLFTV

α-D-glucosidase (Rice) = biological target: T7, α-D-glucosidase (Rice) (Oryza sativa subsp. japonica, UniProt Q653V7); assay: Glycosidase inhibition: α-D-glucosidase (Rice); conditions: for inhibition at 800 µM: compounds tested at 0.8 mM
T7 construct: purchased Sigma
T7 sequence (Q653V7 34-885): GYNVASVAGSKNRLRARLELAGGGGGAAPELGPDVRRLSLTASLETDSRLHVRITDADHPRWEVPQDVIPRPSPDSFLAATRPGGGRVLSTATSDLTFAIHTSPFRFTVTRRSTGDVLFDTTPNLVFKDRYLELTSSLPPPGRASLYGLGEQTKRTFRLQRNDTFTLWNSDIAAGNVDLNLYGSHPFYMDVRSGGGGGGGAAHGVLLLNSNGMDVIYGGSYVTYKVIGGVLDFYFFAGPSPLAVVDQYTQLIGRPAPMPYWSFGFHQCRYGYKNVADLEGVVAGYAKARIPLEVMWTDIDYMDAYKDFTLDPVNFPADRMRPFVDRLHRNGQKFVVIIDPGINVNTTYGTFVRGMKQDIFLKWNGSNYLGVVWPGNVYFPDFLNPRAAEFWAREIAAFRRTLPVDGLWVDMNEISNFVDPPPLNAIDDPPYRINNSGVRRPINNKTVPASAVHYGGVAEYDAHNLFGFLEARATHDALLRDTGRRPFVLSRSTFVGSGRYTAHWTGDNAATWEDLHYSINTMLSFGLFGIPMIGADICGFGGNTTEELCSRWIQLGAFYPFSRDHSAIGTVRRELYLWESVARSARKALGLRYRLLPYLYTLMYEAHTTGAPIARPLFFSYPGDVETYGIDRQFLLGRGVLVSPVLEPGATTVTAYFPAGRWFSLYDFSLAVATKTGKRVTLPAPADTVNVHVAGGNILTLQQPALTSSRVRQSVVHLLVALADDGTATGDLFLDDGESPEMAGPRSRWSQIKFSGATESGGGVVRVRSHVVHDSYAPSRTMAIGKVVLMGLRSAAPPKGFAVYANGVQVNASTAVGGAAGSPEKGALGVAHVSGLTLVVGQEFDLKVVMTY

[8] = biological target: T8, Amyloglucosidase Aspergillus niger (Aspergillus niger, UniProt P69328); assay: Glycosidase inhibition: Amyloglucosidase Aspergillus niger; conditions: compounds tested at 0.8 mM
T8 construct: purchased Sigma
T8 sequence (P69328 25-640): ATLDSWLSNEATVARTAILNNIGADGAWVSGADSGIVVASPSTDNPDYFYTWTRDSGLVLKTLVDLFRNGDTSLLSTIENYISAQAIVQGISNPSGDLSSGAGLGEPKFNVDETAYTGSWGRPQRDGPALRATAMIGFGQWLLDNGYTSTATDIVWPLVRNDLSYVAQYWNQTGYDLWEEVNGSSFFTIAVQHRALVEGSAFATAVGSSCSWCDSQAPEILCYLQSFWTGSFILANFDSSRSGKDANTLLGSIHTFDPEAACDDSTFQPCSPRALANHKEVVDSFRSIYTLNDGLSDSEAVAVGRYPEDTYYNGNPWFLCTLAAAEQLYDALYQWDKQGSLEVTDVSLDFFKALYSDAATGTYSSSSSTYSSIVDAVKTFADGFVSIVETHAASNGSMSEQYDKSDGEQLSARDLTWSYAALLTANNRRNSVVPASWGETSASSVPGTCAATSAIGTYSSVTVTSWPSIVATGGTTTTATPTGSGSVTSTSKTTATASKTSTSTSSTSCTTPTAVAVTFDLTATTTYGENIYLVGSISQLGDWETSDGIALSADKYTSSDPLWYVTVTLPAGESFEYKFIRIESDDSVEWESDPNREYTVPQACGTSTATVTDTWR
Description: as §1, §2

β-D-glucosidase (Almond) = assay: Glycosidase inhibition: β-D-glucosidase (Almond); conditions: compounds tested at 0.8 mM
Description: as §1
as §2, with “(See Watson, A. A., Nash, R. J., Wormald, M. R., Harvey, D. J., Dealler, S., Lees, E., Asano, N., Kizu, H., Kato, A., Griffiths, R. C., Cairns, A. J. and Fleet, G. W. J. (1997). Glycosidase-inhibiting pyrrolidine alkaloids from Hyacinthoides non-scripta. Phytochemistry 46 (2): 255-259.)” left out

[9] = test system: Naringinase Penicillium decumbens; assay: Glycosidase inhibition: Naringinase Penicillium decumbens; conditions: compounds tested at 0.8 mM
Description: as §1
as §2, with “(See Watson, A. A., Nash, R. J., Wormald, M. R., Harvey, D. J., Dealler, S., Lees, E., Asano, N., Kizu, H., Kato, A., Griffiths, R. C., Cairns, A. J. and Fleet, G. W. J. (1997). Glycosidase-inhibiting pyrrolidine alkaloids from Hyacinthoides non-scripta. Phytochemistry 46 (2): 255-259.)” left out

[10] = test system: β-D-galactosidase Bovine liver; assay: Glycosidase inhibition: β-D-galactosidase Bovine liver; conditions: compounds tested at 0.8 mM
Description: as §1, §2

[11] = test system: N-acetyl-β-D-glucosaminidase (Jack bean); assay: Glycosidase inhibition: N-acetyl-β-D-glucosaminidase (Jack bean); conditions: compounds tested at 0.8 mM
Description: as §1
as §2, with “(See Watson, A. A., Nash, R. J., Wormald, M. R., Harvey, D. J., Dealler, S., Lees, E., Asano, N., Kizu, H., Kato, A., Griffiths, R. C., Cairns, A. J. and Fleet, G. W. J. (1997). Glycosidase-inhibiting pyrrolidine alkaloids from Hyacinthoides non-scripta. Phytochemistry 46 (2): 255-259.)” left out

[12] = test system: β-D-mannosidase Cellullomonas fimi; assay: Glycosidase inhibition: β-D-mannosidase Cellullomonas fimi; conditions: compounds tested at 0.8 mM
Procedure: as §2

Compound: O=C(O)CN1C[C@@H](O)[C@H](O)[C@H]1CO [Compound T4, 2-((2R,3R,4R)-3,4-Dihydroxy-2-(hydroxymethyl)pyrrolidin-1-yl)acetic acid]
- inhibition at 800 µM [1]: < 50%
- inhibition at 800 µM [2]: < 50%
- inhibition at 800 µM [3]: < 50%
- inhibition at 800 µM (α-D-glucosidase (Yeast)): < 50%
- % inhibition, N-acetyl-β-D-glucosaminidase (Bovine kidney) [4]: 81.9%
- IC50 [4]: 39.6 µM
- inhibition at 800 µM [5]: < 50%
- inhibition at 800 µM [6]: < 50%
- IC50 [7]: 160 µM
- inhibition at 800 µM (α-D-glucosidase (Rice)): < 50%
- inhibition at 800 µM [8]: < 50%

Compound: OCCN1C[C@H](O)[C@@H](O)[C@H](O)[C@H]1CO [Miglitol, reference compound]
- % inhibition, β-D-glucosidase (Almond) (β-D-glucosidase (Almond)): 99%
- inhibition at 800 µM [1]: 19%
- inhibition at 800 µM [2]: < 5%
- inhibition at 800 µM (α-D-glucosidase (Yeast)): < 5%
- % inhibition, Naringinase Penicillium decumbens [9]: 26%
- % inhibition, β-D-galactosidase Bovine liver [10]: 87%
- % inhibition, N-acetyl-β-D-glucosaminidase (Bovine kidney) [4]: NI (NI = no inhibition)
- % inhibition, N-acetyl-β-D-glucosaminidase (Jack bean) [11]: NI (NI = no inhibition)
- inhibition at 800 µM [6]: 83%
- inhibition at 800 µM ([7]; compounds tested at 0.8 mM): < 5%
- % inhibition, β-D-mannosidase Cellullomonas fimi [12]: NI (NI = no inhibition)
- inhibition at 800 µM (α-D-glucosidase (Rice)): 100%
- inhibition at 800 µM [8]: 78%

Compound: O=C(O)CN1C[C@H](O)[C@@H](O)[C@H](O)[C@H]1CO [Compound G6, 2-((2R,3R,4R,6S)-3,4,5-Trihydroxy-2-(hydroxymethyl)piperidin-1-yl)acetic acid]
- inhibition at 800 µM [1]: < 50%
- inhibition at 800 µM [2]: < 50%
- inhibition at 800 µM [3]: < 50%
- inhibition at 800 µM (α-D-glucosidase (Yeast)): < 50%
- % inhibition, N-acetyl-β-D-glucosaminidase (Bovine kidney) [4]: 83.6%
- IC50 [4]: 10.4 µM
- inhibition at 800 µM [5]: < 50%
- inhibition at 800 µM [6]: < 50%
- IC50 [7]: 80 µM
- inhibition at 800 µM (α-D-glucosidase (Rice)): 99.7%
- IC50 (α-D-glucosidase (Rice); read-out: IC50, α-D-glucosidase (Rice)): 1000 nM
- inhibition at 800 µM [8]: < 50%
